Test results taken from the NIST ThermoML archive (doi:10.1016/j.fluid.2005.05.012).

Assay: xn = mol fraction of the nth substance listed
Conditions: 101.33 kPa, Liquid

CO [methanol] + CN1CCNCC1
x1 = 1
Conditions | mass density [kg/m3] | viscosity [mPa·s]
293.15 K | 791.09 | 0.593
298.15 K | 786.48 | 0.551
303.15 K | 781.22 | 0.509

CN1CCNCC1 [N-methylpiperazine] + CC(C)CO
Conditions | mass density, 293.15 K [kg/m3] | mass density, 298.15 K [kg/m3] | mass density, 303.15 K [kg/m3] | viscosity, 293.15 K [mPa·s] | viscosity, 298.15 K [mPa·s] | viscosity, 303.15 K [mPa·s]
x2 = 0 | 903.78 | 899.8 | 894.55 | 2.1 | 1.841 | 1.624
x2 = 0.0515 | 901.11 | 897.16 | 891.98 | 2.237 | 1.941 | 1.699
x2 = 0.0983 | 898.38 | 894.46 | 889.35 | 2.361 | 2.046 | 1.781
x2 = 0.1506 | 895.07 | 891.19 | 886.16 | 2.542 | 2.198 | 1.914
x2 = 0.2011 | 891.66 | 887.82 | 882.88 | 2.728 | 2.354 | 2.039
x2 = 0.2971 | 884.72 | 880.97 | 876.18 | 3.084 | 2.647 | 2.288
x2 = 0.402 | 876.51 | 872.85 | 868.24 | 3.469 | 2.957 | 2.541
x2 = 0.4982 | 868.29 | 864.71 | 860.24 | 3.838 | 3.249 | 2.785
x2 = 0.6001 | 858.58 | 855.07 | 850.74 | 4.142 | 3.504 | 2.999
x2 = 0.6995 | 847.72 | 844.25 | 840.04 | 4.382 | 3.693 | 3.151
x2 = 0.7978 | 835.15 | 831.71 | 827.6 | 4.487 | 3.789 | 3.211
x2 = 0.8995 | 819.74 | 816.28 | 812.25 | 4.423 | 3.708 | 3.116

CN1CCNCC1 [N-methylpiperazine] + CCCO
Conditions | mass density, 293.15 K [kg/m3] | mass density, 298.15 K [kg/m3] | mass density, 303.15 K [kg/m3] | viscosity, 293.15 K [mPa·s] | viscosity, 298.15 K [mPa·s] | viscosity, 303.15 K [mPa·s]
x2 = 0 | 903.79 | 899.8 | 894.54 | 2.1 | 1.841 | 1.624
x2 = 0.1017 | 899.72 | 895.76 | 890.62 | 2.24 | 1.962 | 1.716
x2 = 0.1987 | 895.17 | 891.23 | 886.21 | 2.369 | 2.058 | 1.809
x2 = 0.3 | 889.62 | 885.71 | 880.86 | 2.536 | 2.2 | 1.932
x2 = 0.4007 | 883.15 | 879.31 | 874.64 | 2.689 | 2.326 | 2.035
x2 = 0.4998 | 875.68 | 871.91 | 867.4 | 2.817 | 2.438 | 2.129
x2 = 0.5504 | 871.35 | 867.6 | 863.18 | 2.863 | 2.478 | 2.167
x2 = 0.6011 | 866.59 | 862.85 | 858.5 | 2.895 | 2.506 | 2.192
x2 = 0.6542 | 861.09 | 857.34 | 853.04 | 2.885 | 2.504 | 2.193
x2 = 0.7001 | 855.83 | 852.05 | 847.8 | 2.874 | 2.497 | 2.186
x2 = 0.7495 | 849.57 | 845.75 | 841.53 | 2.833 | 2.473 | 2.175
x2 = 0.7991 | 842.55 | 838.67 | 834.47 | 2.752 | 2.413 | 2.124
x2 = 0.902 | 825.1 | 821.08 | 816.93 | 2.54 | 2.23 | 1.98

CN1CCNCC1 [N-methylpiperazine] + CCCCO
Conditions | mass density, 293.15 K [kg/m3] | mass density, 298.15 K [kg/m3] | mass density, 303.15 K [kg/m3] | viscosity, 293.15 K [mPa·s] | viscosity, 298.15 K [mPa·s] | viscosity, 303.15 K [mPa·s]
x2 = 0 | 903.79 | 899.8 | 894.54 | 2.1 | 1.841 | 1.624
x2 = 0.0982 | 898.89 | 894.98 | 889.88 | 2.247 | 1.966 | 1.73
x2 = 0.199 | 893.13 | 889.24 | 884.23 | 2.431 | 2.115 | 1.859
x2 = 0.2966 | 886.88 | 883.01 | 878.11 | 2.631 | 2.283 | 2.002
x2 = 0.3973 | 879.73 | 875.91 | 871.16 | 2.841 | 2.461 | 2.153
x2 = 0.5001 | 871.61 | 867.85 | 863.29 | 3.018 | 2.615 | 2.284
x2 = 0.6004 | 862.72 | 859.01 | 854.62 | 3.181 | 2.751 | 2.392
x2 = 0.6995 | 852.72 | 849.01 | 844.76 | 3.261 | 2.832 | 2.471
x2 = 0.7537 | 846.6 | 842.86 | 838.67 | 3.272 | 2.846 | 2.495
x2 = 0.7936 | 841.74 | 837.97 | 833.81 | 3.258 | 2.841 | 2.486
x2 = 0.8002 | 840.9 | 837.13 | 832.97 | 3.247 | 2.833 | 2.489
x2 = 0.8419 | 835.38 | 831.58 | 827.45 | 3.218 | 2.812 | 2.473
x2 = 0.8997 | 827 | 823.16 | 819.05 | 3.145 | 2.756 | 2.427

CCO [ethanol] + CN1CCNCC1
x1 = 1
Conditions | mass density [kg/m3] | viscosity [mPa·s]
293.15 K | 789.32 | 1.17
298.15 K | 785.06 | 1.078
303.15 K | 780.68 | 0.982
